In patent US20060216756A1, “Method for evaluating oxidized protein in horny cell layer” (Shiseido Company Ltd., priority 2003, published 2006):

Tests used:
[1] = system: horny layer oxidized protein; experiment: Agent-induced inhibition of sodium hypochlorite-induced increase in horny layer oxidized protein (tape-stripped horny layer, fluorescein-5-thiosemicarbazide labeling); type: biochemical, human; settings: abdomen tape horny layer, 0.2 mM sodium hypochlorite plus agent, 37° C. for 18 hours; concentration inhibiting increase to median between hypochlorite alone and water alone; read-out: 50% inhibition concentration
Procedure: Adhesive tape is attached to the skin, such as an unexposed part of the abdomen, of a healthy individual, and immediately stripped off for non-invasive sampling of the outer layer of the horny layer. The tape which was attached to the horny layer is incubated in an aqueous solution containing a mixture of the oxidizing agent and a fixed concentration of the candidate agent. […] The inhibiting effect of the agent on oxidized protein increase may also be evaluated based on the level of oxidized protein in the horny layer specimen obtained after simultaneously applying the oxidizing agent onto human skin.
(§1) Transparent adhesive tape was attached to the abdomen of a healthy individual and immediately stripped off, to non-invasively obtain the outer layer of the horny layer. The tape attached to the horny layer was incubated in an aqueous solution comprising a mixture of 0.2 mM sodium hypochlorite and a fixed concentration of the agent, at 37° C. for 18 hours. After incubation was complete, the mixture was thoroughly washed with phosphate-buffered saline (PBS) and then reacted with a 100 mM MES-Na buffer solution (pH 5.5) containing 20 μM fluorescein-5-thiosemicarbazide (Molecular Probes Co.) at room temperature for 1 hour. After completion of the reaction, thorough washing was carried out with phosphate-buffered saline (PBS) and a fluorescent microscope was used for observation.

[2] = system: horny layer oxidized protein; experiment: Increase in horny layer oxidized protein due to aldehyde (tape-stripped horny layer); type: biochemical, human; settings: 1 mM aqueous acrolein, room temperature, 18 hours, abdomen tape horny layer
Procedure: as §1, with “in a 1 mM” for “in an”, “aqueous acrolein” for “aqueous”, “solution” for “solution comprising a mixture of 0.2 mM sodium hypochlorite and a fixed concentration of the agent,”, “at room temperature” for “at 37° C.”

[3] = system: horny layer oxidized protein; experiment: Increase in horny layer oxidized protein due to unsaturated fatty acid coated on forearm; type: in vivo, human; settings: 40 μL/cm^2 of 30% linoleic acid-ethanol solution, 3 consecutive days
Procedure: (§2) After coating the forearm of a healthy individual with 40 μL/cm^2 of a 30% linoleic acid-ethanol solution for 3 consecutive days, transparent adhesive tape was attached to the irradiated site and immediately stripped off, to non-invasively obtain the outer layer of the horny layer. The tape attached to the horny layer was reacted with a 100 mM MES-Na buffer solution (pH 5.5) containing 20 μM fluorescein-5-thiosemicarbazide (Molecular Probes Co.) at room temperature for 1 hour. After completion of the reaction, thorough washing was carried out with phosphate-buffered saline (PBS), and then a fluorescent microscope was used for observation.

[4] = system: horny layer oxidized protein; experiment: Increase in horny layer oxidized protein due to sodium hypochlorite coated on forearm; type: in vivo, human; settings: 2 μL/cm^2 of 20 mM aqueous solution, 5 consecutive days
Procedure: as §2, with “2” for “40”, “20 mM aqueous sodium hypochlorite” for “30% linoleic acid-ethanol”, “5” for “3”, “attached” for “attached to the irradiated site”

[5] = system: horny layer oxidized protein; experiment: Increase in horny layer oxidized protein due to sodium hypochlorite and unsaturated fatty acids (tape-stripped horny layer); type: biochemical, human; settings: 0.2 mM aqueous sodium hypochlorite, 37° C., 18 hours, abdomen tape horny layer
Procedure: Transparent adhesive tape was attached to the abdomen of a healthy individual and immediately stripped off, to non-invasively obtain the outer layer of the horny layer. The tape attached to the horny layer was coated with 200 μg/cm^2 of unsaturated fatty acids (linoleic acid, oleic acid and palmitoleic acid), and then incubated in a 0.2 mM aqueous sodium hypochlorite solution at 37° C. for 18 hours. After incubation was complete, the mixture was thoroughly washed with phosphate-buffered saline (PBS) and then reacted with a 100 mM MES-Na buffer solution (pH 5.5) containing 20 μM fluorescein-5-thiosemicarbazide (Molecular Probes Co.) at room temperature for 1 hour. After completion of the reaction, thorough washing was carried out with phosphate-buffered saline (PBS) and a fluorescent microscope was used for observation.

Row | IC50 [1] [µM] | SMILES | further results
1 | 63 | NCCS(=O)(O)=S [2-Aminoethanethiosulfonic acid] | 
2 | 190 | O=C1O[C@H]([C@@H](O)CO)C(O)=C1O[C@H]1O[C@H](CO)[C@@H](O)[C@H](O)[C@H]1O [2-O-α-D-Glucopyranosyl-L-ascorbic acid] | 
3 | 140 | CCOC1=C(O)C(=O)O[C@@H]1[C@@H](O)CO [3-O-Ethylascorbic acid] | 
4 | 210 | O=C1O[C@H]([C@@H](O)CO)C(O)=C1O [Ascorbic acid] | 
5 | 8 | N[C@@H](CCC(=O)N[C@@H](CS)C(=O)NCC(=O)O)C(=O)O [Glutathione] | 
6 | < 125 | O=C1O[C@H]([C@@H](O)CO)C(O)=C1OP(=O)(O)O [Magnesium ascorbate phosphate ester] | 
7 | < 125 | Cc1c(C)c2c(c(C)c1OP(=O)(O)OC1=C(O)C(C(O)CO)OC1=O)CCC(C)(CCCC(C)CCCC(C)CCCC(C)C)O2 [Potassium α-tocopherol-2-L-ascorbate phosphate diester] | 
8 | < 125 | O=S(O)S(=O)(=O)O [Sodium pyrosulfite] | 
9 |  | C=CC=O [acrolein] | change in oxidized protein after incubation with acrolein [2]: increase in oxidized protein
10 |  | CCCCC/C=C\C/C=C\CCCCCCCC(=O)O [linoleic acid] | change in oxidized protein after coating skin with linoleic acid [3]: increase in oxidized protein
11 |  | OCl [sodium hypochlorite] | change in oxidized protein after coating skin with sodium hypochlorite [4]: increase in oxidized protein; change in oxidized protein after incubation with sodium hypochlorite, compared to incubation with water [5]: increase in oxidized protein
12 | 220 | Cc1c(C)c2c(c(C)c1O)CC[C@@](C)(CCC[C@H](C)CCC[C@H](C)CCCC(C)C)O2 [α-Tocopherol] | 

Row | SMILES | IC50 [1] [µM] | further results
13 | NCCS(=O)O [2-Aminoethanesulfinic acid] | 86 | 
